Columns and labels:
[1] = test system: carcinoma of the breast 4T1; assay: 2H MRI visualisation of 4T1 breast carcinoma in mice in vivo; parameters: species or system mice Balb/c
Experimental: (§1) In the examples below, the MRI scanner Bruker BioSpec BC70/30 USR with the constant field of 7.05 T, equipped with a surface transmitting-and-receiving coil with a diameter of 3 cm and a scan depth of ca. 1 cm was used.
(§2) To register deuterium image the FLASH (Fast low angle shot) pulse sequence was used.
(§3) For experiments with the broadband excitation the following settings were used: the excitation frequency was determined by ^2H NMR spectrum and was sfo1≈46.1745 MHz, a rectangular excitation pulse with a width of 1300 Hz and a power of 36 dB, the flip angle FA=30°, the time TR=11.8 MS, echo time TE=4.4 msec, a scan area of 10 cm×10 cm, scan matrix, 50×50, slice thickness 3 cm, bandwidth of 12500 Hz, total scan time 10 minutes (1030 averages).
For experiments with selective excitation the following settings were used: excitation frequency sfo1=46.1745 MHz, a rectangular excitation pulse with a width of 130 Hz and a power of 48 dB, the flip angle FA=30°, the repetition time TR=25 MS, echo time TE=10 MS, a scanning area of 10 cm×10 cm, scan matrix 50×50, slice thickness 3 cm, bandwidth of 25,000 Hz, total scan time 10 minutes.
In this example, experiments were conducted on mice Balb/c inoculated with carcinoma of the breast 4T1 (injection of 5×10^5 cells/60 μl under the left front paw for 10 days before experiment) and in healthy Balb/c mice.
An animal no. 1-5 weighing 20 g was injected intraperitoneally with a solution of 20 mg of 2-amino-2-(CD3)-3,3,3-D3-propionic acid in 0.5 ml of a saline solution. An animal no. […] weighing 20 g was injected intraperitoneally with a solution of 10 mg (mouse no. 4) or 5 mg (mouse no. 5) 2-amino-2-(CD3)-3,3,3-D3-propionic acid in 0.25 ml of a saline solution. After injection, the animal was kept in a separate cage for a specified time (no. 1 with the tumor and no. 2 without the tumor: 40 min; no. 3 with the tumor: 115 min; no. 4 with the tumor: 20 and 360 min; no. 5 and no. 6 with the tumor: 30 min). To register the MR images and spectra an animal was immobilized with isoflurane. The surface transmitting-and-receiving coil was fixed on the body of the mouse on the dorsal side sequentially in two positions (thoracic, kidneys). The FIGS. 3-7 show ^2H MR images obtained with the use of the broadband excitation of the deuterium nuclei.

[2] = test system: carcinoma of the breast 4T1; assay: as above; parameters: species or system mice Balb/c; remark: listed apart in the source
C6 glioma = assay: 2H MRI visualisation of glioma C6 in rats in vivo; parameters: species or system Wistar rats; details: 4 hours after 150 mg i.p.
Experimental: as §1, §2, §3
In this example, experiments were conducted on Wistar rats inoculated with C6 glioma and in healthy Wistar rats.
An animal with the weight of 210 g was injected intraperitoneally a solution of 150 mg of 2-amino-2-(CD3)-3,3,3-D3-propionic acid in 1.5 ml of a saline solution. After injection, the animal was kept in a separate cage with free access to food and water. To register the MR images and spectra an animal was immobilized with isoflurane. The surface transmitting-and-receiving coil was fixed over the head of the rat.

allowable time range between administration and detection of deuterium ([1]; mice with 4T1 tumor, 20 mg i.p., FIGS. 3, 5, 7 and 8): 20 to 360 min | signal/noise ratio in the kidneys ([1]; mouse no. 1, 40 min after 20 mg i.p., broadband excitation): approximately 25 | signal/noise ratio in the region of the tumor ([1]; mouse no. 1 with tumor, 40 min after 20 mg i.p., broadband excitation): approximately 6 | signal/noise ratio in the region of the tumor ([1]; mouse no. 1 with tumor, 40 min after 20 mg i.p., selective excitation): about 4 | visibility of excised tumor on deuterium MR image ([1]; tumors excised from mouse no. 3, 150 min after injection of 20 mg): clearly visible on deuterium MR image | localization of the deuterium signal (2H MRI) (C6 glioma; rats without tumors): does not show a clear localization
Compound: [2H]C([2H])([2H])C(N)(C(=O)O)C([2H])([2H])[2H] [2-amino-2-(CD3)-3,3,3-D3-propionic acid]
localization of the deuterium signal (2H MRI) ([1]; control mouse no. 2 without the tumor, 40 min after 20 mg i.p.): localized in the region corresponding to the liver | localization of the deuterium signal (2H MRI) ([1]; mouse no. 1 with tumor, 40 min after 20 mg i.p.): localized in the region corresponding to the tumor | localization of the deuterium signal (2H MRI) ([1]; mouse no. 3 with tumor, 115 min after 20 mg i.p.): localized in the region corresponding to the tumor and in the area corresponding to the liver | localization of the deuterium signal (2H MRI) ([2]; mouse no. 4 with tumor, 20 min after 20 mg i.p.): localized in the region corresponding to the most recently developed and actively growing parts of the tumor, and also in the area corresponding to the liver | localization of the deuterium signal (2H MRI) ([2]; mouse no. 4 with tumor, 360 min after 20 mg i.p.): localized in the region corresponding to the most recently developed and actively growing parts of the tumor | localization of the deuterium signal (2H MRI) ([2]; mouse no. 5 with tumor, 30 min after 10 mg i.p.): localized in the region corresponding to individual parts of the tumor | localization of the deuterium signal (2H MRI) ([2]; mouse no. 6 with tumor, 30 min after 5 mg i.p.): localized in the region corresponding to individual parts of the tumor | localization of the deuterium signal (2H MRI) (C6 glioma; rat with C6 glioma): localized in the region corresponding to the tumor

Reference: patent publication US12082918B2, “Preparation for magnetic resonance diagnostics for oncological diseases, comprising deuterated 2-amino-2-methylpropionic acid and/or 2-(N-methylamino)-2-methylpropionic acid, and diagnostic method using said preparation” (SOLVEX LIMITED LIABILITY COMPANY, priority 2017, dated 2024)
